Results as given in Sander's compilation of Henry's law constants (doi:10.1080/00039896.1979.10667371).

Experiment: Henry solubility constant Hcp at 310 K (mol/(m3 Pa))
Conditions: reference: Sato and Nakajima (1979b)

Question: Which “Henry solubility constant Hcp at 310 K” value does the source give for ClCC(Cl)(Cl)Cl [1,1,1,2-tetrachloroethane] here?
Answer: 0.0021

Question: Which “Henry solubility constant Hcp at 310 K” value does the source give for CC(Cl)(Cl)Cl [1,1,1-trichloroethane] here?
Answer: 0.00036

Question: Which “Henry solubility constant Hcp at 310 K” value does the source give for ClC(Cl)C(Cl)Cl [1,1,2,2-tetrachloroethane] here?
Answer: 0.014

Question: With ClCC(Cl)Cl [1,1,2-trichloroethane] as the compound, how does the “Henry solubility constant Hcp at 310 K” value read?
Answer: 0.0066

Question: For CC(Cl)CCl (stereo not drawn) [1,2-dichloropropane], which “Henry solubility constant Hcp at 310 K” value is on record?
Answer: 0.0021

Question: Which “Henry solubility constant Hcp at 310 K” value does the source give for Clc1cccc(Cl)c1 [1,3-dichlorobenzene] here?
Answer: 0.0021

Question: With CCCCCl [1-chlorobutane] as the compound, how does the “Henry solubility constant Hcp at 310 K” value read?
Answer: 0.00033

Question: With CCCCCCl [1-chloropentane] as the compound, how does the “Henry solubility constant Hcp at 310 K” value read?
Answer: 0.00027

Question: For Clc1ccccc1 [chlorobenzene], which “Henry solubility constant Hcp at 310 K” value is on record?
Answer: 0.0016

Question: For ClCCl [dichloromethane], which “Henry solubility constant Hcp at 310 K” value is on record?
Answer: 0.0028

Question: With ClC(Cl)=C(Cl)Cl [tetrachloroethene] as the compound, how does the “Henry solubility constant Hcp at 310 K” value read?
Answer: 0.00017

Question: With ClC(Cl)(Cl)Cl [tetrachloromethane] as the compound, how does the “Henry solubility constant Hcp at 310 K” value read?
Answer: 9.7e-05

Question: With ClC=C(Cl)Cl [trichloroethene] as the compound, how does the “Henry solubility constant Hcp at 310 K” value read?
Answer: 0.0005
